Source: ChEMBL document CHEMBL5154908, “Design, Synthesis, and Biological Characterization of Inhaled p38α/β MAPK Inhibitors for the Treatment of Lung Inflammatory Diseases” (J Med Chem, 2022)
pIC50: −log10 of the molar value. In brackets after ≈: the same amount, converted by molar mass.

Columns and labels:
[1] = Selectivity index, ratio of drug concentration in Sprague-Dawley rat lung homogenate to IC50 for human p38alpha; format: tissue-based; conditions: tissue homogenate
[2] = Drug uptake in Sprague-Dawley rat lung homogenate at 0.03 mg/kg, IT measured after 7 hrs by LC/MS/MS analysis; format: ADME, organism-based; conditions: in vivo, other
[3] = molecular target: T1, Mitogen-activated protein kinase 12 (Homo sapiens, UniProt P53778); test: Inhibition of recombinant human full length His-tagged p38gamma expressed in baculovirus expression system preincubated for 2 hrs followed by ATP addition and measured after 1 hr by Alpha screen assay
T1 sequence (P53778 whole entry): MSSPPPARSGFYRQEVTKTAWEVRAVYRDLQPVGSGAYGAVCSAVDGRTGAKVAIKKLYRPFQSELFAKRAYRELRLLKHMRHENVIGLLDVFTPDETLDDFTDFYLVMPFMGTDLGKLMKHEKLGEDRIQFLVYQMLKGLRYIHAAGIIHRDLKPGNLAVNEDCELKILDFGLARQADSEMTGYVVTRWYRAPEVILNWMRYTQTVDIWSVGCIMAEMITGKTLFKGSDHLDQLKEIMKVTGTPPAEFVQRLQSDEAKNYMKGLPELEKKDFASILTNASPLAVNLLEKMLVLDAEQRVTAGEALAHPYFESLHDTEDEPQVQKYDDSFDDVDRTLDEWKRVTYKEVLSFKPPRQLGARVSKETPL

[4] = Cmax in Sprague-Dawley rat plasma at 0.03 mg/kg, IT measured after 0.8 hrs by LC/MS/MS analysis; format: ADME, organism-based; set-up: dose 0.03 mg/kg, time 0.8 hrs, route it
[5] = molecular target: T2, Mitogen-activated protein kinase 14 (Homo sapiens, UniProt Q16539); test: Displacement of SKF-86002 from human inactivated p38alpha assessed as dissociation half life incubated for 2 hrs by fluorescence based analysis
Rattus norvegicus [6] = test: Antiinflammatory activity against LPS-induced Sprague-Dawley rat inflammatory model assessed as inhibition of neutrophil cells release in BALF at 0.3 mg/kg, IT measured after 12 hrs relative to control; format: functional
[7] = molecular target: T2, Mitogen-activated protein kinase 14; test: Inhibition of human recombinant full length GST-tagged p38alpha expressed in Escherichia coli preincubated for 2 hrs followed by ATP addition and measured after 1 hr by Alpha screen assay
[8] = Metabolic stability in rat liver microsomes assessed as half life at 1 uM preincubated for 10 mins followed by NADPH addition and measured after 30 mins by LC/MS/MS analysis; format: ADME, Microsome; conditions: time 40 min
[9] = Protein binding in rat plasma at 10 uM incubated for 4 hrs by LC/MS/MS analysis; format: ADME, cell-free; conditions: read-out: PPB (converted)
[10] = Inhibition of LPS-stimulated TNFalpha release in human PBMC cells preincubated for 1 hr followed by LPS stimulation and measured after 18 hrs; format: functional, cell-based
[11] = Drug concentration in Sprague-Dawley rat lung homogenate at 0.3 mg/kg, IT measured after 24 hrs by LC/MS/MS analysis; format: ADME, organism-based; conditions: read-out: Ct
[12] = Drug uptake in Sprague-Dawley rat lung homogenate at 0.03 mg/kg, IT measured after 24 hrs by LC/MS/MS analysis; format: ADME, organism-based; conditions: in vivo, other
[13] = molecular target: Mitogen-activated protein kinase 11 (Homo sapiens, UniProt Q15759); test: Inhibition of recombinant human full length His-tagged p38beta expressed in baculovirus expression system preincubated for 2 hrs followed by ATP addition and measured after 1 hr by Alpha screen assay
[14] = Efflux ratio of permeability in human Caco-2 cells at 10 uM measured after 60 mins by LC-MS/MS analysis; format: ADME, cell-based
[15] = molecular target: T3, Mitogen-activated protein kinase 13 (Homo sapiens, UniProt O15264); test: Inhibition of recombinant human full length His-tagged p38delta expressed in baculovirus expression system preincubated for 2 hrs followed by ATP addition and measured after 1 hr by Alpha screen assay
T3 sequence (O15264 whole entry): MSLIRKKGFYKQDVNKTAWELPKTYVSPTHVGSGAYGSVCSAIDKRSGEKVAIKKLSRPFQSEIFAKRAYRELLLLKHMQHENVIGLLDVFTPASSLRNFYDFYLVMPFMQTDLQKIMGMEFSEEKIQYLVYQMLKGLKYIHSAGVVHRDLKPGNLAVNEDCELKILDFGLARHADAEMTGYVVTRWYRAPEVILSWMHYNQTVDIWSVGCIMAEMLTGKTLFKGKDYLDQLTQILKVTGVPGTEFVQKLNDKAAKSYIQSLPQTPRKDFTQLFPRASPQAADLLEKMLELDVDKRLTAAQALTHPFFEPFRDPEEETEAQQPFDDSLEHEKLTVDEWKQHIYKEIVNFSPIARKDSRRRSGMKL

[16] = Permeability across apical to basolateral side in human Caco-2 cells at 10 uM measured after 60 mins by LC/MS/MS analysis; format: ADME, cell-based; conditions: read-out: permeability
[17] = Cmax in Sprague-Dawley rat lung homogenate at 0.03 mg/kg, IT measured after 0.8 hrs by LC/MS/MS analysis; format: ADME, organism-based; set-up: time 0.8 hrs, dose 0.03 mg/kg, route it
[18] = Protein binding in rat lung homogenate at 10 uM incubated for 4 hrs by LC/MS/MS analysis; format: ADME, tissue-based; conditions: read-out: PB (converted)
[19] = Solubility of the compound at >=1 mg/ml measured after 30 mins by HPLC analysis; format: physicochemical
[20] = Cmax in Sprague-Dawley rat plasma at 0.3 mg/kg, IT measured after 0.8 hrs by LC/MS/MS analysis; format: ADME, organism-based; set-up: time 0.8 hrs, dose 0.3 mg/kg, route it
[21] = Cmax in Sprague-Dawley rat lung homogenate at 0.3 mg/kg, IT measured after 0.8 hrs by LC/MS/MS analysis; format: ADME, organism-based; set-up: time 0.8 hrs, dose 0.3 mg/kg, route it
Rattus norvegicus [22] = test: Antiinflammatory activity against LPS-induced Sprague-Dawley rat inflammatory model assessed as inhibition of neutrophil cells release in BALF at 0.1 mg/kg, IT preincubated for 2 hrs followed by LPS-stimulation and measured after 4 hrs relative to control; format: functional; set-up: scale not given: the % may be the effect or the level left; conditions: time 6 hrs

T2 sequence (Q16539 whole entry): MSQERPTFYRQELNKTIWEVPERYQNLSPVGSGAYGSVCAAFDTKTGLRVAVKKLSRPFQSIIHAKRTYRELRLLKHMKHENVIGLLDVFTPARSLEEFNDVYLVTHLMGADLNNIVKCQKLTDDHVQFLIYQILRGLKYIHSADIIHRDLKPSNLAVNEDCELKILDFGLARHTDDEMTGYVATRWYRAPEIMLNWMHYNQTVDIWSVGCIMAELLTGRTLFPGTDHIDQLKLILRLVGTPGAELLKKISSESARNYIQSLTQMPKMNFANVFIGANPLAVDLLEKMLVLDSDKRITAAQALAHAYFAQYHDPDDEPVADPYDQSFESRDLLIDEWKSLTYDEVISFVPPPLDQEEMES
Mitogen-activated protein kinase 11, sequence (Q15759 whole entry): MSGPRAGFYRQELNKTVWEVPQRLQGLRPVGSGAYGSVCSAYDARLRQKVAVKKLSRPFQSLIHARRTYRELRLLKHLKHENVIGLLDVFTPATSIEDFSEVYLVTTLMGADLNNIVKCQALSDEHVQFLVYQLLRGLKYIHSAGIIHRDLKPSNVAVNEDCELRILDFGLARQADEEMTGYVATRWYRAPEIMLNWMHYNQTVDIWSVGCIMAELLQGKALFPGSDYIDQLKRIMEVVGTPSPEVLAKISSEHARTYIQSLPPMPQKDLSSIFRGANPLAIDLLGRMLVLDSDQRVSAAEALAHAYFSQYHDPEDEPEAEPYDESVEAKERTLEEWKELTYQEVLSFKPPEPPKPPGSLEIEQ

SMILES	Ratio [1]	Drug uptake [2] [%]	pIC50 [3]	Cmax [4] [nM]	T1/2 [5] [min]	inhibition in vivo at 0.3 mg/kg (Rattus norvegicus [6]) [%]	pIC50 [7]	half-life at 1 µM [8] [min]	fraction unbound at 4 h, 10 µM [9]	pIC50 [10]	concentration at 24 h [11] [nM]	Drug uptake [12] [%]	pIC50 [13]	efflux ratio at 1 h, 10 µM [14]	pIC50 [15]	Papp A→B at 1 h, 10 µM [16] [×10⁻⁶ cm/s]	Cmax [17] [nM]	fraction unbound at 4 h, 10 µM [18]	solubility at 0.5 h [19] [µg/mL]	also measured
Cc1ccc(-n2nc(C(C)(C)C)cc2NC(=O)N[C@H]2CC[C@@H](Oc3ccc4nnc(N5CCC(CO)CC5)n4c3)c3ccccc32)cc1	> 300	99	8.00	50	> 960	19	9.52	15	0.001	9.00	10300	23	9.10	> 2.5	6.03	3.3	5070	0.009	10 (≈ 15.4 µM)	
C[C@H]1CCCCN1c1nnc2ccc(O[C@@H]3CC[C@H](NC(=O)Nc4cc(C(C)(C)C)nn4-c4cnn(CCN(C)C)c4)c4ccccc43)cn12	70	7.2				56	10.00	< 5	0.014	9.00	1400	1.7		> 2.5	5.39	1.2		0.005	800 (≈ 1180 µM)	Cmax [20]: 20 nM; Cmax [21]: 3040 nM
C[C@H]1CCCCN1c1nnc2ccc(O[C@@H]3CC[C@H](NC(=O)Nc4cc(C(C)(C)C)nn4-c4cccc(OCCN(C)C)c4)c4ccccc43)cn12	4.9	8.4	5.54	10	> 960	49	9.70	20	0.003	9.00	970	1.6	8.89	> 2.5	< 5.00	1.4	2700	0.001	100 (≈ 142 µM)	
Cc1ccc(-n2nc(C(C)(C)C)cc2NC(=O)N[C@H]2CC[C@@H](Oc3ccc4nnc(N5CCCCC5)n4c3)c3ccccc32)cc1	40	21	7.80	60	> 960	20	9.52	< 10	< 0.001	9.52	12100	19	9.40	> 2.5	< 5.00	2.5	3180	0.001	30 (≈ 48.5 µM)	
CC(C)(C)c1cc(NC(=O)NCc2ccccc2Sc2ccc3nnc(-c4ccccc4SCCO)n3c2)n(-c2ccc(O)c(Cl)c2)n1 [PF-03715455]										8.10										Activity (Rattus norvegicus [22]): 14%
